What was measured:
[1] = target: T1, dopamine-β-hydroxylase (DBH) (Bos taurus, UniProt P15101); assay: DBH inhibition kinetics: conversion of tyramine to octopamine, HPLC with fluorometric quantitation; assay type: biochemical
T1 sequence (P15101 1-610): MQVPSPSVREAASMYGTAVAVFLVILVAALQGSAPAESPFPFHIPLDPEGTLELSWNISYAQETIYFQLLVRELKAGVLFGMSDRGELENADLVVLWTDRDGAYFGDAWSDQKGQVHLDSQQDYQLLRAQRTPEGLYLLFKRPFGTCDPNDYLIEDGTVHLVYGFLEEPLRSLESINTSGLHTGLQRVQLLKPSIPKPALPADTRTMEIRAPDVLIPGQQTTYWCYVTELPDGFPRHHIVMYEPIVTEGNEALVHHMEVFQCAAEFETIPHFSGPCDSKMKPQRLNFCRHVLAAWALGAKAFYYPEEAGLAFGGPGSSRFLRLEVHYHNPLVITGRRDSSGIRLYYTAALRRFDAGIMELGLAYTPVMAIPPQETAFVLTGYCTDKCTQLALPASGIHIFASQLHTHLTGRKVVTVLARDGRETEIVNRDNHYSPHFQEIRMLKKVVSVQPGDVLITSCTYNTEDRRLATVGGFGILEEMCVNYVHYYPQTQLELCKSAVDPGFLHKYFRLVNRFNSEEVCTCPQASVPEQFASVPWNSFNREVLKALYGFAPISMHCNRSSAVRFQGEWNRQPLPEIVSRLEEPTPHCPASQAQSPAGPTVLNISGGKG
Text: The DBH inhibitory properties of the compounds of this invention can also readily be determined in vitro by standard and well known procedures for assaying the conversion of tyramine to octopamine in the presence of DBH, such as the procedure set forth by Feilchenfeld, N. B., Richter, H. W. and Waddell, W. H. in "Time-Resolved Assay of Dopamine Beta Hydroxylase Activity Utilizing High-Pressure Liquid Chromatography", Analyt. Biochem., 122, 124-128 (1982). Determination of the kinetics of DBH inhibition is exemplified by a procedure where the enzyme-assisted conversion of tyramine to octopamine is determined by incubating varying concentrations of test compound with constant concentrations of substrate, enzyme (DBH), molecular oxygen, an electron donor such as ascorbate and the necessary cofactors for the enzyme at optimal temperature and pH. After incubation, the product is separated out by high-performance liquid chromatography and quantitated fluorometrically, from which an inhibition constant (ki) can readily be calculated.

[2] = test system: spontaneously hypertensive rats; assay: Antihypertensive activity in vivo: continuous recording of arterial blood pressure in unanesthetized spontaneously hypertensive rats; parameters: Max Change MBP: unit not given here; details: for % Lowering MBP / Max Change MBP: dosed as tosylate salt, MBP = mean blood pressure
Method: The ability of the compounds of this invention to lower blood pressure can be determined in vivo by using standard and well-known procedures such as those employed in the continuous recording of arterial blood pressure in conscious animals. For instance, test compounds are administered intraperitoneally (ip) to unanesthetized, spontaneously hypertensive rats and the arterial blood pressure is monitored continuously. In tests utilizing the above described procedure, the antihypertensive effects of the test compounds are readily apparent as indicated by the degree of lowering of mean blood pressure (MBP) noted in Table II.
*Dose was administered as mg/kg tosylate salt.

[3] = target: T1, dopamine-β-hydroxylase (DBH); assay: Time-dependent DBH inhibitory activity in vitro (oxygen uptake, tyramine as substrate); assay type: biochemical
Method: Since DBH is a major enzyme in the synthetic pathway of norepinephrine (NE), the presence of a DBH inhibitor would act to decrease the amount of NE produced, and thereby have an antihypertensive effect. The DBH inhibitory properties of the compounds of this invention can readily be determined by standard and well-known procedures. […] The test compound is added at the desired concentration, and the system is incubated. Aliquots are taken at different time intervals and DBH activity is measured using tyramine as the substrate. The reaction is followed by measuring oxygen uptake using a polarographic electrode and an oxygen monitor by the method of S. May, et al., J. Biol. Chem., 256, 2258 (1981).
t 1/2: time required for 50% log activity remaining

SMILES | % Lowering MBP ([2]; 100 mg/kg ip) [%] | Max Change MBP ([2]; 100 mg/kg ip) | Activity in the time-dependent DBH inhibition assay (in words) [3] | % Lowering MBP ([2]; 200 mg/kg ip) [%] | Max Change MBP ([2]; 200 mg/kg ip) | also measured
NCCC1SCCS1 [1,3-Dithiolane-2-ethanamine] |  |  |  |  |  | DBH inhibitory activity (in words) ([1]; judged from ki): potent activity as a DBH inhibitor; Ki ([1]; tyramine to octopamine conversion, read-out: ki (inhibition constant), DBH): 11 µM
NC/C=C1/CCCS1 [(Z)-2-(Dihydro-2(3H)-thienylidene)ethanamine] | 28.6 | -54 +/-21 | not active |  |  | In vivo antihypertensive activity (in words) ([2]; ip, spontaneously hypertensive rats): active as an in vivo antihypertensive agent
NCC=C1SCCS1 [Compound 1 (Table I), 2-(1,3-dithiolan-2-ylidene)ethanamine] |  |  | most active compound of the compounds tested | 21.7 | -39 +/-13 | 
CC(N)C=C1SCCS1 (stereo not shown) [Compound 3 (Table I), 1-(1,3-dithiolan-2-ylidene)-2-propanamine] |  |  |  | 17.3 | -30 +/-13 | 
NC/C=C1\CCCS1 [Compound 4 (Table I), (E)-2-(dihydro-2(3H)-thienylidene)ethanamine] | 30.0 | -55 +/-22 |  |  |  | 

Reference: patent publication US4970228A, “Novel aminoalkyl-substituted heterocyclic sulfur compounds” (Merrell Dow Pharmaceuticals, priority 1989, dated 1990)
